Source: article PMC12264554, “Application of preclinical absorption, distribution, metabolism, elimination in vitro techniques for the characterization and compound library optimization of novel antibiotic gallium salophen” (Drug Metabolism and Disposition, 2025)

Assays:
[1] = Experimental LogP by reverse-phase HPLC method; format: physicochemical; details: extrapolated log kw
Text: LogP was experimentally determined using previously published reverse-phase high-performance liquid chromatography method, and this workflow was adapted using instrumentation described in the previous LC-MS/MS analysis section ([Coutinho et al, 2023]). Briefly, analogs were eluted using isocratic flow with an increasing percentage of organic solvent from 55% to 90% in increments of 5%. The change in the log of the retention factor, log k, was plotted against the fraction of organic solvent. This allowed for extrapolation to the y-intercept, which is when the fraction of organic in the system is zero, or log kw. The same workflow was applied to known compounds with a published logP value to establish a relationship between logP and log kw. This ratio was used to calculate the experimental logP from the log kw of the test compounds. The in silico prediction of logP values was obtained using an online calculator by Molinspiration Cheminformatics (molinspiration.com).

HasA = HasA (Pseudomonas aeruginosa, UniProt G3XD33); assay: Kd determination by fluorescence quenching of apo-HasAp; details: read-out: HasA Kd; apo-HasAp 1 μM, 20 mM sodium phosphate pH 7.4, 25 °C, one-site binding fit
Sequence of HasA (G3XD33 entry or part of it): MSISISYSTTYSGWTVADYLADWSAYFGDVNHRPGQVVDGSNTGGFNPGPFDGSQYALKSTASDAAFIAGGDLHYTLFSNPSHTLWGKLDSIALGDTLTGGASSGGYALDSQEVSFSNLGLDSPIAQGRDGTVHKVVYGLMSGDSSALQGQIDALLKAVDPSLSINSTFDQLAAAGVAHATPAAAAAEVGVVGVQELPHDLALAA
Experimental: Wild-type, full-length HasAp was prepared from freshly transformed Escherichia coli BL21(DE3) competent cells as previously described in 4 L of M9 media. Cell pellets were resuspended and lysed with an LM-20 microfluidizer at 18,000 psi. Lysate was clarified by centrifugation and applied to a Q-Sepharose column. HasAp was eluted over a gradient from 20 to 600 mM NaCl in 20 mM Tris-HCl (pH 7.5), and desired fractions determined by SDS-PAGE were pooled. Apo-HasAp was further purified on a Butyl Sepharose Fast Flow column equilibrated with 50 mM sodium phosphate buffer with 0.7 M ammonium sulfate (pH 7.0). Holo-HasAp and other proteins eluted within 2–3 bed volumes of 50 mM sodium phosphate containing 0.5 M ammonium sulfate. Apo-HasAp was then eluted with a linear gradient of sodium phosphate buffer (50–20 mM) containing ammonium sulfate (0.5–0 M). Fractions were analyzed again by SDS-PAGE, and the apo-HasAp was pooled, concentrated (Amicon stirred cell with Ultracel 10 kDa filter), and exchanged into 20 mM sodium phosphate buffer.
Binding affinities were determined using a BioTek Synergy H1 microplate reader in a black 96-well plate. Compounds were solvated in H2O in serial dilutions (100–0.39 μM). One micromolar solution of apo-HasAp 20 mM sodium phosphate buffer (pH 7.4, 25 °C) was titrated into the ligand of interest. Emission spectra were recorded (300–500 nm) after excitation at 280 nm. The decrease in maximum emission was plotted against the ligand concentration (accounting for dilution) and fit to one-site binding using GraphPad Prism v10.

[2] = Caco-2 permeability screening; format: in vitro ADME; details: for Papp A→B / Papp B→A: 30 and 60 min, average ± SEM; for Papp A→B: read-out: Papp apical to basolateral; for Papp B→A: read-out: Papp basolateral to apical; for Papp: Caco-2, ranked by Papp against control drugs, read-out: Permeability ranking
Experimental: Caco-2 cells were received from American Type Culture Collection and certified mycoplasma free. Cells were seeded on transwell plates (CoStar, growth area 0.33 cm^2/well, polycarbonate membrane, 0.33 μm pore size) between passage 20 and 27 and then analyzed between 21 and 25 days after wells were seeded to ensure enterocyte-like differentiation. Before assessing permeability, cells were washed once with Hank’s Balanced Salt Solution buffer, pH 7.4, and then incubated at 37 °C for 30 minutes. Transepithelial electrical resistance (TEER) was measured after equilibration before the experiment using an epithelial volt-ohmmeter (EVOM, World Precision Instruments), and cells were used if TEER > 250 Ω × cm^2. Cells were dosed to measure permeability from basolateral and apical sides at a concentration of 20 μM of test compound and 50 μM of Lucifer yellow. Lucifer yellow was used as a “zero permeability” marker to monitor the integrity of cell barrier. Samples were taken at 0 and 60 minutes from the donor side, and samples were taken at 30 and 60 minutes from the receiver side; media was replenished after the 30-minute sample was taken from both chambers. A calibration curve was prepared by serial dilution using the dosing solution in a 1:5 dilution. […] Samples were prepared for LC-MS/MS analysis by taking 100 μL of sample, adding 1 μM internal standard (GaSal-4 or GaSal-5), and crashing with 400 μL of methanol. Samples were centrifuged at 3000 rpm at 4 °C for 30 minutes, 200 μL of supernatant was transferred to a new plate, and 100 μL of water was added to each sample. Samples were vortexed and analyzed by LC-MS/MS as described earlier. […] To preliminarily evaluate organic cation transporter 1 (OCT1) or P-glycoprotein (P-gp)-dependent transport, transport studies were conducted with and without a 1 μM “inhibitor cocktail” alongside GaSal. […] The Papp for basolateral to apical, Papp apical to basolateral, and efflux ratio were reported for each compound. In order to calculate Papp, the concentration in the sampled time point was determined from the calibration curve and then converted to μg based on the volume of the chamber (0.2 mL for apical, 1.0 mL for basolateral). […] The calculation of Papp was determined using eq. […] Data are presented as the average ± SEM for each compound analyzed as n = 3 on 2 different days with 2 different cell line passages, for n = 6 total. GaSal is n = 3 on 3 different cell line passages since this was used as a test compound for the inhibition cocktail experiments.

[3] = RBC/PL partitioning equilibrium in whole blood; details: for K2EDTA KRBC/PL: pooled K2EDTA whole blood; for K2EDTA KRBC/PL / Heparin KRBC/PL: LC-MS/MS (ICP-MS for Ga^3+); for Heparin KRBC/PL: pooled sodium heparin whole blood
Experimental: The mixtures were digested at 80 °C for 4 hours and further diluted to a concentration of 6% nitric acid. Gallium (Ga^71) in whole blood, PL, and RBC samples were quantified using an Agilent 7700x ICP-MS instrument (Agilent Technologies). Metal levels were detected using an Octopole Reaction System in He mode. Other ICP-MS parameters include an radio frequency power of 1500 W, on octupole radio frequency of 190 V, an octapole bias of –18 V, a helium gas flow of 4.3 mL/min, and an argon flow of 0.99 L/min. Samples were loaded through a 7700X peristaltic (with a speed of 0.1 rps) and a MicroMist nebulizer. A standard calibration curve was used to derive metal concentrations. The calibration standards from 0–250 ppb were prepared in 6% nitric acid using atomic absorption standards (Sigma). Data analysis and extraction were performed using Agilent’s MassHunter software version 5.1, specifically version D.01.01.
All LC-MS/MS grade solvents were purchased from ThermoFisher. Ammonium bicarbonate was purchased from Sigma Aldrich. Analysis was performed on a Waters I-Class ultra-performance liquid chromatography system connected with a Waters Xevo TQ-XS mass spectrometer. Ten millimolar ammonium bicarbonate, pH 9.4 was used for mobile phase A, and 100% methanol was used for mobile phase B. The column flow rate was set at 0.400 mL/min. Chromatographic separation was performed with a BEH C18 (2.1 × 50 mm, 1.7 μm) column (Waters). […] The total run time was 4 minutes. The column temperature was set to 60 °C, and the autosampler temperature was set to 15 °C. Washing parameters were 800 μL of weak needle wash (acetonitrile [ACN]:Water/50:50) and 1000 μL of strong needle wash (methanol:ACN:2-propanol:formic acid/30:30:40:0.5) after every injection. Transitions used to monitor all drugs in the study are shown in Supplemental Table 1.
Whole blood (either potassium EDTA [K2EDTA] or sodium heparin) was preincubated at 37 °C for 30 minutes before spiking with the analyte. GaSal-5 was made at a stock concentration of 100 μg/mL in water and then spiked at a high concentration (1 μg/mL) and low concentration (100 ng/mL) to determine whether equilibrium was concentration dependent. Samples were then aliquoted and stored in a water bath at 37 °C for 1, 2, 3, 4, and 8 hours or harvested immediately. PL was harvested from samples by centrifuging at 3000 rpm at 4 °C for 10 minutes. PL was transferred to a new tube and considered the PL fraction, whereas the rest of the matrix was considered the RBC fraction. Samples were then either analyzed by LC-MS/MS or ICP-MS. […] For selectivity lot analysis, whole blood from 3 male and 3 female donors were incubated for 2 hours and then analyzed with LC-MS/MS and ICP-MS at a single concentration of 1 μg/mL. Data are presented as average ± SEM, n = 3 per sample, per concentration. Significance was determined by using a paired t test for ICP-MS and LC-MS/MS data (the same sample, different method) or a 2-tailed Student’s t test for different anticoagulants.

[4] = calculated B/P; ref (Cao et al., 2023); cited from earlier work

CC(=Nc1ccccc1N=Cc1ccc(OCCN2CCOCC2)cc1O)c1ccccc1O.[Ga+3] [GaSal-8]
logP [1]: 4.11 | Kd (HasA): 5.2 ± 0.4 µM | Papp A→B ([2]; Caco-2, 20 μM): < 0.01 ×10⁻⁶ cm/s | Papp B→A ([2]; Caco-2, 20 μM): 5.75 ± 0.37 ×10⁻⁶ cm/s | Papp [2]: < 1.12 ×10⁻⁶ cm/s | efflux ratio at 20 µM ([2]; human, Caco-2, 20 μM, read-out: Efflux ratio B to A/A to B): > 5.75 | K2EDTA KRBC/PL ([3]; 0.1 μg/mL, 2 hours): 0.12 ± 0.09 | Heparin KRBC/PL ([3]; 0.1 μg/mL, 2 hours): 33.8 ± 5.7 | K2EDTA KRBC/PL ([3]; 1 μg/mL, 2 hours): 0.10 ± 0.05 | Heparin KRBC/PL ([3]; 1 μg/mL, 2 hours): 37.4 ± 2.6

[Sr+2] [Strontium]
KRBC/PL (B/P ratio) [4]: 0.42

[Ni] [Nickel]
KRBC/PL (B/P ratio) [4]: 0.50

COCCOCCOc1ccc(/C=N/c2ccccc2N=C(C)c2ccccc2O)c(O)c1.[Ga+3] [GaSal-10]
Kd (HasA): 3.4 ± 0.3 µM

[Se] [Selenium]
KRBC/PL (B/P ratio) [4]: 1.34

OCCCOc1ccc(/C=N/c2ccccc2/N=C/c2ccc(OCCCO)cc2O)c(O)c1.[Ga+3] [GaSal-11]
logP [1]: 4.04 | Kd (HasA): 0.57 ± 0.03 µM | Papp A→B ([2]; Caco-2, 20 μM): < 0.01 ×10⁻⁶ cm/s | Papp B→A ([2]; Caco-2, 20 μM): 0.72 ± 0.12 ×10⁻⁶ cm/s | Papp [2]: < 1.12 ×10⁻⁶ cm/s | K2EDTA KRBC/PL ([3]; 0.1 μg/mL, 2 hours): 0.05 ± 0.03 | Heparin KRBC/PL ([3]; 0.1 μg/mL, 2 hours): 0.91 ± 0.19 | K2EDTA KRBC/PL ([3]; 1 μg/mL, 2 hours): 0.05 ± 0.02 | Heparin KRBC/PL ([3]; 1 μg/mL, 2 hours): 1.15 ± 0.19

[Cd] [Cadmium]
KRBC/PL (B/P ratio) [4]: 4.28

[As] [Arsenic]
KRBC/PL (B/P ratio) [4]: 1.46

O=[N+]([O-])[O-].O=[N+]([O-])[O-].O=[N+]([O-])[O-].[Ga+3] [Ga^3+, gallium nitrate, reference compound]
hemolysis [3]: > 5% | ICP-MS calculated KRBC/PL ([3]; 1 μg/mL, sodium heparin whole blood, 6 selectivity lots, 2 hours): 0.08 ± 0.01

CN(C)C(=O)C(CCN1CCC(O)(c2ccc(Cl)cc2)CC1)(c1ccccc1)c1ccccc1 [Loperamide, reference compound]
efflux ratio at 60 min, 20 μM ([2]; human, Caco-2, pH 7.4, known drug standards, read-out: Efflux Ratio B to A/ A to B): 4.22 | Papp A→B at 60 min, 20 μM ([2]; human, Caco-2, pH 7.4, known drug standards, read-out: Papp Apical to Basolateral): 3.51 ± 0.04 ×10⁻⁶ cm/s | Papp B→A at 60 min, 20 μM ([2]; human, Caco-2, pH 7.4, known drug standards, read-out: Papp Basolateral to Apical): 14.8 ± 2.12 ×10⁻⁶ cm/s | Papp at 60 min, 20 μM ([2]; human, Caco-2, pH 7.4, known drug standards, read-out: Permeability Ranking): 3.51 to 5.33 ×10⁻⁶ cm/s
